Data published in EPA's ToxRefDB 2.

Key:
[1] = tested on: rabbit; settings: Prenatal developmental toxicity study, new zealand white, Oral, Gavage/Intubation, dose end: 19 GD
[2] = tested on: rat; settings: Prenatal developmental toxicity study; sprague dawley; Oral; Gavage/Intubation; dose end: 17 GD; group: maternal; systemic / in life observation / body weight / body weight gain + systemic / in life observation / clinical signs / fur (altered appearance…
[3] = tested on: rat; settings: Sub-acute repeat dose toxicity; sprague dawley; Oral; Gavage/Intubation; dose end: 28 day; group: systemic; systemic / in life observation / body weight / body weight gain + systemic / in life observation / food consumption / food consumption + …
[4] = tested on: rat; settings: Fertility (Segment I), sprague dawley, Oral, Gavage/Intubation, dose end: 7 GD
[5] = tested on: dog; settings: Sub-acute repeat dose toxicity, beagle, Oral, Capsule, dose end: 1 month, group: systemic
[6] = tested on: rat; settings: Prenatal developmental toxicity study; sprague dawley; Oral; Gavage/Intubation; dose end: 17 GD; group: maternal; systemic / in life observation / body weight / body weight + systemic / in life observation / body weight / body weight gain + systemic / in…
[7] = tested on: primate; settings: Sub-acute repeat dose toxicity, macaque, Oral, Gavage/Intubation, dose end: 1 month, group: systemic
[8] = tested on: primate; settings: Chronic toxicity, macaque, Oral, Gavage/Intubation, dose end: 6 month, group: systemic
[9] = tested on: rat; settings: Chronic toxicity, sprague dawley, Oral, Gavage/Intubation, dose end: 6 month, group: systemic
[10] = tested on: rat; settings: Sub-acute repeat dose toxicity, Oral, Gavage/Intubation, dose end: 7 day, group: systemic
[11] = tested on: primate; settings: Sub-acute repeat dose toxicity; Oral; Gavage/Intubation; dose end: 5 day; group: systemic; systemic / clinical chemistry / aspartate aminotransferase (ast/sgot) / aspartate aminotransferase (ast/sgot) + systemic / clinical …
[12] = tested on: rat; settings: Sub-acute repeat dose toxicity; Oral; Gavage/Intubation; dose end: 4 day; group: systemic; systemic / in life observation / clinical signs / impaired reflex, nos
[13] = tested on: primate; settings: Sub-acute repeat dose toxicity; Oral; Gavage/Intubation; dose end: 5 day; group: systemic; systemic / in life observation / food consumption / food consumption + systemic / in life observation / clinical signs / emesis + systemic…
[14] = tested on: rat; settings: Sub-acute repeat dose toxicity, Oral, Gavage/Intubation, dose end: 28 day, group: systemic
[15] = tested on: rat; settings: Sub-acute repeat dose toxicity, Oral, Gavage/Intubation, dose end: 7 day, group: systemic; remark: listed apart in the source
[16] = group: developmental, developmental / developmental malformation / eye / open eye
[17] = group: maternal, systemic / in life observation / body weight / body weight gain + systemic / in life observation / food consumption / food consumption + …
[18] = group: maternal, systemic / pathology gross / pancreas / irregular surface + systemic / pathology gross / pancreas / reduced size
[19] = group: maternal, reproductive / reproductive performance / estrous cycle / abnormal
[20] = group: parental, systemic / in life observation / body weight / body weight gain + systemic / in life observation / clinical signs / piloerection + systemic…
[21] = group: parental, systemic / in life observation / body weight / body weight gain + systemic / in life observation / food consumption / food consumption + …
[22] = systemic / clinical chemistry / alanine aminotransferase (alt/sgpt) / alanine aminotransferase (alt/sgpt) + systemic / clinical chemistry / …
[23] = systemic / clinical chemistry / alanine aminotransferase (alt/sgpt) / alanine aminotransferase (alt/sgpt) + systemic / pathology microscopic…
[24] = systemic / in life observation / clinical signs / [other] + systemic / in life observation / clinical signs / defecation (diarrhea) + …
[25] = systemic / in life observation / food consumption / food consumption
[26] = systemic / clinical chemistry / alanine aminotransferase (alt/sgpt) / alanine aminotransferase (alt/sgpt)
[27] = systemic / clinical chemistry / [other] / [other] + systemic / clinical chemistry / phosphorus / phosphate + systemic / clinical chemistry…
[28] = systemic / clinical chemistry / [other] / [other] + systemic / clinical chemistry / phosphorus / phosphate + systemic / in life observation…
[29] = systemic / hematology / blood clotting / blood clotting - prothrombin time + systemic / organ weight / heart / relative to body weight + …
[30] = systemic / hematology / blood clotting / blood clotting - prothrombin time + systemic / organ weight / liver / absolute + systemic / organ …
[31] = systemic / hematology / blood clotting / blood clotting - activated partial thromboplastin time + systemic / hematology / blood clotting / …
[32] = systemic / hematology / mean corpuscular hemoglobin (mch) / mean corpuscular hemoglobin (mch) + systemic / hematology / mean corpuscular …
[33] = systemic / hematology / blood clotting / blood clotting - prothrombin time + systemic / hematology / lymphocyte / lymphocyte + systemic / in…

In the case of `COc1cc(-c2nc(NC(=O)c3cc4cc(C)cc(C)c4n3CC(=O)O)sc2CCC2CCCCC2)c(OC)cc1Cl.O=C(O)C(F)(F)F`, the LEL [1, 16] is reported as 10 mg/kg/day, the LOAEL [1, 16] is reported as 10 mg/kg/day and the NEL [1, 16] is reported as 3 mg/kg/day. For the same compound, the NOAEL [1, 16] was 3 mg/kg/day, the LOAEL [1, 17] was > 10 mg/kg/day and the NOAEL [1, 17] was ≥ 10 mg/kg/day. The LEL [1, 18] was 0.5 mg/kg/day, the NEL [1, 18] was < 0.5 mg/kg/day and the LEL [2] was 50 mg/kg/day. For the same compound, the LOAEL [2] was > 1000 mg/kg/day, the NEL [2] was < 50 mg/kg/day and the NOAEL [2] was ≥ 1000 mg/kg/day. For the same compound, the LEL [3] was 1 mg/kg/day, the LOAEL [3] was > 30 mg/kg/day and the NEL [3] was < 1 mg/kg/day. For the same compound, the NOAEL [3] was ≥ 30 mg/kg/day, the LEL [4, 19] was 200 mg/kg/day and the LOAEL [4, 19] was > 1000 mg/kg/day. The NEL [4, 19] was 50 mg/kg/day, the NOAEL [4, 19] was ≥ 1000 mg/kg/day and the LOAEL [4, 20] was > 1000 mg/kg/day. For the same compound, the NOAEL [4, 20] was ≥ 1000 mg/kg/day, the LEL [4, 21] was 50 mg/kg/day and the NEL [4, 21] was < 50 mg/kg/day. The LOAEL [5, 22] was > 25 mg/kg/day, the NOAEL [5, 22] was ≥ 25 mg/kg/day and the LEL [5, 23] was 1 mg/kg/day. For the same compound, the NEL [5, 23] was < 1 mg/kg/day, the LEL [6] was 250 mg/kg/day and the LOAEL [6] was > 500 mg/kg/day. The NEL [6] was < 250 mg/kg/day, the NOAEL [6] was ≥ 500 mg/kg/day and the LOAEL [7, 24] was 5 mg/kg/day. For the same compound, the NOAEL [7, 24] was 1 mg/kg/day, the LEL [7, 25] was 1 mg/kg/day and the NEL [7, 25] was < 1 mg/kg/day. For the same compound, the LEL [8, 26] was 0.6 mg/kg/day, the NEL [8, 26] was < 0.6 mg/kg/day and the LOAEL [8, 23] was 3 mg/kg/day. For the same compound, the NOAEL [8, 23] was 0.6 mg/kg/day, the LOAEL [9, 27] was > 250 mg/kg/day and the NOAEL [9, 27] was ≥ 250 mg/kg/day. For the same compound, the LEL [9, 28] was 1 mg/kg/day and the NEL [9, 28] was < 1 mg/kg/day.

In the case of `O=C(CO)N1CCC(c2[nH]nc(-c3ccc(Cl)cc3F)c2-c2ccncn2)CC1`, the LOAEL [10, 29] is reported as > 2000 mg/kg/day, the NOAEL [10, 29] is reported as ≥ 2000 mg/kg/day and the LEL [10, 30] is reported as 200 mg/kg/day. For the same compound, the NEL [10, 30] was < 200 mg/kg/day, the LEL [11] was 600 mg/kg/day and the LOAEL [11] was > 600 mg/kg/day. For the same compound, the NEL [11] was < 600 mg/kg/day, the NOAEL [11] was ≥ 600 mg/kg/day and the LEL [12] was 50 mg/kg/day. The LOAEL [12] was > 2000 mg/kg/day, the NEL [12] was < 50 mg/kg/day and the NOAEL [12] was ≥ 2000 mg/kg/day. The LEL [13] was 600 mg/kg/day, the LOAEL [13] was > 600 mg/kg/day and the NEL [13] was < 600 mg/kg/day. The NOAEL [13] was ≥ 600 mg/kg/day, the LOAEL [14, 31] was > 2000 mg/kg/day and the NOAEL [14, 31] was ≥ 2000 mg/kg/day. The LEL [14, 32] was 20 mg/kg/day, the NEL [14, 32] was < 20 mg/kg/day and the LOAEL [15, 33] was > 2000 mg/kg/day. For the same compound, the NOAEL [15, 33] was ≥ 2000 mg/kg/day, the LEL [15, 29] was 200 mg/kg/day and the NEL [15, 29] was < 200 mg/kg/day.
